Laboratory results reported in patent publication US20210221848A1, “POLYMYXIN DERIVATIVES AND THEIR USE IN COMBINATION THERAPY TOGETHER WITH DIFFERENT ANTIBIOTICS” (priority 2014, published 2021).
Where two headings read alike, the source gives them in different places.

What was measured:
[1] = system: E. coli strains with elevated MICs to Polymyxin B; experiment: MIC against strains with elevated MICs to Polymyxin B; format: cell-based, Escherichia coli; conditions: Table 6D; for MIC E. coli 058: strain 058, elevated MIC to Polymyxin B; for MIC E. coli 059: strain 059, elevated MIC to Polymyxin B; for MIC E. coli 060: strain 060, elevated MIC to Polymyxin B; for MIC E. coli 061: strain 061, elevated MIC to Polymyxin B
Outline: (§1)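 Polymyxin B-resistant isolates were inoculated from 0.5 McFarland suspensions of 18-24 hour Mueller-Hinton agar colonies. Testing was done twice per compound, and results disagreeing by over 2-fold were discarded as non-valid. For compounds assayed several times, the modal MIC is given.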

[2] = system: K. pneumoniae strains with elevated MICs to Polymyxin B; experiment: as above; format: cell-based, Klebsiella pneumoniae; conditions: Table 6D; for MIC K. pneumoniae 062: strain 062, elevated MIC to Polymyxin B; for MIC K. pneumoniae 063: strain 063, elevated MIC to Polymyxin B; for MIC K. pneumoniae 064: strain 064, elevated MIC to Polymyxin B; for MIC K. pneumoniae 655: strain 655, elevated MIC to Polymyxin B
Outline: as §1

[3] = system: P. aeruginosa strains with elevated MICs to Polymyxin B; experiment: as above; format: cell-based, Pseudomonas aeruginosa; conditions: Table 6D; for MIC P. aeruginosa 065: strain 065, elevated MIC to Polymyxin B; for MIC P. aeruginosa 066: strain 066, elevated MIC to Polymyxin B; for MIC P. aeruginosa 067: strain 067, elevated MIC to Polymyxin B
Outline: as §1

[4] = system: A. baumanii strains with elevated MICs to Polymyxin B; experiment: as above; format: cell-based, Acinetobacter baumannii; conditions: Table 6D; for MIC A. baumannii 053: strain 053, elevated MIC to Polymyxin B; for MIC A. baumannii 056: strain 056, elevated MIC to Polymyxin B; for MIC A. baumannii 068: strain 068, elevated MIC to Polymyxin B; for MIC A. baumannii 070: strain 070, elevated MIC to Polymyxin B
Outline: as §1

[5] = system: Pseudomonas aeruginosa ATCC 27853; format: in vivo; conditions: mouse lungs, P. aeruginosa ATCC 27853, SC at 2, 6 and 10 h post-infection, 16 h infection model, 17.2 mg/kg/dose free base
Method: Groups of 7 male neutropenic specific-pathogen-free CD-1 mice weighing 21.5-27.5 g were used. On Day 0, animals were infected with 0.04 mL inoculum by intranasal instillation into mouse nostrils and were kept in an upright position on a string rack for ˜10 min post-infection. […] At 2 h, the CFU count was determined from 3 mice and the remaining mice (7 per test compound groups) were treated with a subcutaneous injection of the drug at +2, 6 and 10 hr post-infection. Test compounds and the comparator polymyxin B were administered at four concentrations (2.6, 8.6, 17.2 and 25.8 mg/kg free base). The vehicle control group (7 mice) was treated with 0.9% saline for injection at 2, 6 and 10 h post-infection.
(§2) Sixteen hours after infection, the mice were euthanized humanely. The lungs of each animal were harvested, homogenized and quantitatively cultured onto CLED agar for CFU determination. Decrease of the total CFU compared to control counts at 16 h post-infection was determined for each dose group.
The in vivo efficacy of 4 compounds of the invention (D25, D36, D42 and D50) was evaluated in a mouse lung infection model of P. aeruginosa ATCC 27853. The model was setup as described above with the exception that groups of up to 8 mice were inoculated through intranasal instillation of ˜2.5×10^6 CFUs of P. aeruginosa isolate ATCC 27853 (1.0×10^5 CFU/lung). Test compounds were administered at two concentrations (equivalent to 4.3 and 17.2 mg/kg free base). Three dose levels of polymyxin B sulfate were used as comparator (equivalent to 4.3, 8.6 and 17.2 mg/kg free base).

E. coli [6] = system: E. coli
K. pneumoniae [7] = system: K. pneumoniae
P. aeruginosa [8] = system: P. aeruginosa
A. baumannii [9] = system: A. baumannii
E. coli [10] = experiment: MIC in 1:1 (wt:wt) combination with Rifampicin; format: cell-based, Escherichia coli; conditions: 1:1 (wt:wt) with Rifampicin, total drug concentration
Method: (§3) The inoculum was prepared by making a direct suspension of isolated colonies (selected from an 18-24 hour Mueller-Hinton agar plate) adjusted to the 0.5 McFarland standard. […] The assays were performed in duplicate. […] In cases where the duplicate values varied by less than 2-fold, the lower of the two values is reported. If a variation of greater than 2-fold was observed, the assay was considered non-valid. Several of the compounds were subjected to multiple tests, and where this is the case, the MIC reflects the modal value obtained.
(§4) MIC values (microgram/mL) refer to the total drug concentration (i.e. test agent plus Rifampicin).

K. pneumoniae [11] = experiment: MIC in 1:1 (wt:wt) combination with Rifampicin; format: cell-based, Klebsiella pneumoniae; conditions: 1:1 (wt:wt) with Rifampicin, total drug concentration
Method: as §3, §4

P. aeruginosa [12] = experiment: MIC in 1:1 (wt:wt) combination with Rifampicin; format: cell-based, Pseudomonas aeruginosa; conditions: 1:1 (wt:wt) with Rifampicin, total drug concentration
Method: as §3, §4

A. baumannii [13] = experiment: MIC in 1:1 (wt:wt) combination with Rifampicin; format: cell-based, Acinetobacter baumannii; conditions: 1:1 (wt:wt) with Rifampicin, total drug concentration
Method: as §3, §4

[14] = system: Acinetobacter baumannii NCTC 13301; conditions: for Mean log10 CFU reduction vs. control: mouse lungs, A. baumannii NCTC 13301, SC at 2, 6 and 10 h post-infection, 16 h infection model
Method: On Day 0, animals were infected with 0.04 mL inoculum by intranasal instillation into mouse nostrils and were kept in an upright position on a string rack for ˜10 min post-infection. […] The vehicle control group (7 mice) was treated with 0.9% saline for injection at 2, 6 and 10 h post-infection.
as §2

[15] = system: Acinetobacter baumannii NCTC 13301; conditions: mouse thigh, 16 h model
[16] = absence of a second agent, Table 6B

3(S)-3-aminomethyl-5- methyl hexanoyl L- Thr-L-Dap-polymyxin B heptapeptide [Example D42]
MIC E. coli 058 [1]: 8 micrograms/mL
MIC E. coli 059 [1]: 16 micrograms/mL
MIC E. coli 060 [1]: 16 micrograms/mL
MIC E. coli 061 [1]: 32 micrograms/mL
MIC K. pneumoniae 062 [2]: >256 micrograms/mL
MIC K. pneumoniae 063 [2]: 64 micrograms/mL
MIC K. pneumoniae 064 [2]: 16 micrograms/mL
MIC K. pneumoniae 655 [2]: 64 micrograms/mL
MIC P. aeruginosa 065 [3]: 4 micrograms/mL
MIC P. aeruginosa 066 [3]: 32 micrograms/mL
MIC P. aeruginosa 067 [3]: >256 micrograms/mL
MIC A. baumannii 053 [4]: >256 micrograms/mL
MIC A. baumannii 056 [4]: 256 micrograms/mL
MIC A. baumannii 068 [4]: 16 micrograms/mL
MIC A. baumannii 070 [4]: 128 micrograms/mL
Mean log10 CFU reduction vs. control [5]: 5.34 log10 CFU
MIC, E. coli ATCC 25922 (E. coli [6]; [16]): 0.25 micrograms/mL
MIC, E. coli NCTC 13441 (E. coli [6]; [16]): 0.25 micrograms/mL
MIC, K. pneumoniae ATCC 4352 (K. pneumoniae [7]; [16]): 0.125 micrograms/mL
MIC, K. pneumoniae ATCC BAA-2146 (K. pneumoniae [7]; [16]): 0.5 micrograms/mL
MIC, P. aeruginosa ATCC 27853 (P. aeruginosa [8]; [16]): 0.25 micrograms/mL
MIC, P. aeruginosa CCUG 59347 (P. aeruginosa [8]; [16]): 0.5 micrograms/mL
MIC, A. baumannii ATCC BAA-747 (A. baumannii [9]; [16]): 0.25 micrograms/mL
MIC, A. baumannii NCTC 13424 (A. baumannii [9]; [16]): 0.5 micrograms/mL

(trans-5-(isobutyl- piperidine)-3- carbonyl L-Thr-L- Dap-polymyxin B heptapeptide [Example D65]
MIC in 1:1 combination with rifampicin, E. coli 058 (E. coli [10]; E. coli 058): ≤0.5 microgram/mL
MIC in 1:1 combination with rifampicin, E. coli 059 (E. coli [10]; E. coli 059): ≤0.5 microgram/mL
MIC in 1:1 combination with rifampicin, E. coli 060 (E. coli [10]; E. coli 060): ≤0.5 microgram/mL
MIC in 1:1 combination with rifampicin, E. coli ATCC 25922 (E. coli [10]; E. coli ATCC 25922): ≤0.5 microgram/mL
MIC in 1:1 combination with rifampicin, K. pneumoniae 062 (K. pneumoniae [11]; K. pneumoniae 062): 1 microgram/mL
MIC in 1:1 combination with rifampicin, K. pneumoniae CCUG 59348 (K. pneumoniae [11]; K. pneumoniae CCUG 59348): 1 microgram/mL
MIC in 1:1 combination with rifampicin, P. aeruginosa 063 (P. aeruginosa [12]; P. aeruginosa 063): 16 microgram/mL
MIC in 1:1 combination with rifampicin, P. aeruginosa 068 (P. aeruginosa [12]; P. aeruginosa 068): 1 microgram/mL
MIC in 1:1 combination with rifampicin, A. baumannii 053 (A. baumannii [13]; A. baumannii 053): ≤0.5 microgram/mL
MIC in 1:1 combination with rifampicin, A. baumannii 056 (A. baumannii [13]; A. baumannii 056): ≤0.5 microgram/mL
MIC E. coli 058 [1]: 1 micrograms/mL
MIC E. coli 059 [1]: 2 micrograms/mL
MIC E. coli 060 [1]: 1 micrograms/mL
MIC E. coli 061 [1]: 2 micrograms/mL
MIC K. pneumoniae 062 [2]: 32 micrograms/mL
MIC K. pneumoniae 063 [2]: 8 micrograms/mL
MIC K. pneumoniae 064 [2]: 2 micrograms/mL
MIC K. pneumoniae 655 [2]: 4 micrograms/mL
MIC P. aeruginosa 065 [3]: 2 micrograms/mL
MIC P. aeruginosa 066 [3]: 1 micrograms/mL
MIC P. aeruginosa 067 [3]: 64 micrograms/mL
MIC A. baumannii 053 [4]: 16 micrograms/mL
MIC A. baumannii 056 [4]: 1 micrograms/mL
MIC A. baumannii 068 [4]: 2 micrograms/mL
MIC A. baumannii 070 [4]: 4 micrograms/mL
efficacy compared with polymyxin B ([14]; mouse lung, all doses (2.6, 8.6, 17.2 and 25.8 mg/kg free base), SC at 2, 6 and 10 h, 16 h): greater efficacy than observed with the equivalent dose of polymyxin B
Mean log10 CFU reduction vs. control ([14]; 2.6 mg/kg/dose free base): 1.07 log10 CFU
Mean log10 CFU reduction vs. control ([14]; 8.6 mg/kg/dose free base): 1.91 log10 CFU
Mean log10 CFU reduction vs. control ([14]; 17.2 mg/kg/dose free base): 2.89 log10 CFU
Mean log10 CFU reduction vs. control ([14]; 25.8 mg/kg/dose free base): 8.15 log10 CFU
MIC, E. coli ATCC 25922 (E. coli [6]; sole activity, Table 6C): 0.03 micrograms/mL
MIC, E. coli NCTC 13441 (E. coli [6]; sole activity, Table 6C): 0.06 micrograms/mL
MIC, K. pneumoniae ATCC 4352 (K. pneumoniae [7]; sole activity, Table 6C): 0.03 micrograms/mL
MIC, K. pneumoniae ATCC BAA-2146 (K. pneumoniae [7]; sole activity, Table 6C): 0.125 micrograms/mL
MIC, P. aeruginosa ATCC 27853 (P. aeruginosa [8]; sole activity, Table 6C): 0.25 micrograms/mL
MIC, P. aeruginosa CCUG 59347 (P. aeruginosa [8]; sole activity, Table 6C): 0.25 micrograms/mL
MIC, A. baumannii ATCC BAA-747 (A. baumannii [9]; sole activity, Table 6C): 0.06 micrograms/mL
MIC, A. baumannii NCTC 13424 (A. baumannii [9]; sole activity, Table 6C): 0.125 micrograms/mL
Mean log10 CFU reduction vs. control ([15]; 0.215 mg/kg/dose free base SC at 2, 6 and 10 h post-infection): 0.71 log10 CFU
Mean log10 CFU reduction vs. control ([15]; 0.86 mg/kg/dose free base SC at 2, 6 and 10 h post-infection): 2.40 log10 CFU
Mean log10 CFU reduction vs. control ([15]; 2.6 mg/kg/dose free base SC at 2, 6 and 10 h post-infection): 5.42 log10 CFU
Mean log10 CFU reduction vs. control ([15]; 8.6 mg/kg/dose free base SC at 2, 6 and 10 h post-infection): 6.05 log10 CFU
Mean log10 CFU reduction vs. control ([15]; 17.2 mg/kg/dose free base SC at 2, 6 and 10 h post-infection): 6.59 log10 CFU
